Source: the Kinase Knowledgebase extract (Sharma et al. 2016)

Columns and labels:
EGFR (mouse) [1] = biological target: EGFR (mouse) (UniProt P00533); details: balb/c 3t3
EGFR = EGFR (UniProt P00533)
EGFR (mouse) [2] = biological target: EGFR (mouse) (UniProt P00533); details: balb/mk

Chain of EGFR (P00533 whole entry, looked up): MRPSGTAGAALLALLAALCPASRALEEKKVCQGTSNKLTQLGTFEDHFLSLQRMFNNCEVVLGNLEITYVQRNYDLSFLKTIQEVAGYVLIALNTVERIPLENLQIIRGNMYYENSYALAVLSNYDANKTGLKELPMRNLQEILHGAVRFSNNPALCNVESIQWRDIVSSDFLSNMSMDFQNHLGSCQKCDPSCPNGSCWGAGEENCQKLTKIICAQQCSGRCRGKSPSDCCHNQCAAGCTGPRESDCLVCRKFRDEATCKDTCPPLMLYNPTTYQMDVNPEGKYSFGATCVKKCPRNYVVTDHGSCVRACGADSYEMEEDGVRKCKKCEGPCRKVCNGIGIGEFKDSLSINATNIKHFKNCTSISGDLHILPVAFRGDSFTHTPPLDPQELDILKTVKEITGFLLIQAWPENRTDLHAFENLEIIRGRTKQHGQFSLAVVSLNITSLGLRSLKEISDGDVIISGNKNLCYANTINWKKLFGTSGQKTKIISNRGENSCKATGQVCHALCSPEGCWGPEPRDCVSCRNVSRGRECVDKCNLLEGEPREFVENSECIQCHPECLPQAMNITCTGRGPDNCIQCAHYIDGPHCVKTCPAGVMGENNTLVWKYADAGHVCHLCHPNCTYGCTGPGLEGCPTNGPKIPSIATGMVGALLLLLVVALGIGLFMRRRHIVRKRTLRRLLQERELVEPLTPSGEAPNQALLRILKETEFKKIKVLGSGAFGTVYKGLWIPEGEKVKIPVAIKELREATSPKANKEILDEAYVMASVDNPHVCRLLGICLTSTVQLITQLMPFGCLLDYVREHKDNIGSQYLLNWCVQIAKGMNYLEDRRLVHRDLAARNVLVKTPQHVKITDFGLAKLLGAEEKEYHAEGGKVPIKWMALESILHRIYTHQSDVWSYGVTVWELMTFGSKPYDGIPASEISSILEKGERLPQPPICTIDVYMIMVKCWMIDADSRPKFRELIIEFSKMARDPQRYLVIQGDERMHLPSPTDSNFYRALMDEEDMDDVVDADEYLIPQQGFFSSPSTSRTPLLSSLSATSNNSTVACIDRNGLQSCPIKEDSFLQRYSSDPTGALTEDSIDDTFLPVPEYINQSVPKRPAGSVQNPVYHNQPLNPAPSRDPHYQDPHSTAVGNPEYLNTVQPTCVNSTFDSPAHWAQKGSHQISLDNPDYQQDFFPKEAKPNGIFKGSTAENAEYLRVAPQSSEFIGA

Oc1ccc(-c2n[nH]c3ncnc(Nc4cccc(Cl)c4)c23)cc1
IC50 (EGFR (mouse) [1]): > 10 µM

COc1ccc(-c2n[nH]c3ncnc(Nc4cccc(Cl)c4)c23)cc1
IC50 (EGFR (mouse) [1]): > 10 µM

Cc1cccc(Nc2ncnc3[nH]nc(Nc4cccc(Cl)c4)c23)c1
IC50 (EGFR (mouse) [1]): > 10 µM

COc1cccc(Nc2n[nH]c3ncnc(Nc4cccc(Cl)c4)c23)c1
IC50 (EGFR (mouse) [1]): > 10 µM

Nc1nc(N)c2c(Nc3cccc(Cl)c3)n[nH]c2n1
IC50 (EGFR (mouse) [1]): > 10 µM

Clc1cccc(CNc2n[nH]c3ncnc(Nc4cccc(Cl)c4)c23)c1
IC50 (EGFR (mouse) [1]): > 10 µM

Cc1c(C)n(C)c2ncnc(Nc3cccc(Cl)c3)c12
IC50 (EGFR): 0.45 µM

O=[N+]([O-])c1cccc(-c2n[nH]c3ncnc(Nc4cccc(Cl)c4)c23)c1
IC50 (EGFR (mouse) [2]): > 50 µM
IC50 (EGFR (mouse) [1]): > 10 µM

Nc1cccc(-c2n[nH]c3ncnc(Nc4cccc(Cl)c4)c23)c1
IC50 (EGFR (mouse) [1]): > 10 µM

Clc1cccc(Nc2n[nH]c3ncnc(Oc4cccc(Cl)c4)c23)c1
IC50 (EGFR (mouse) [2]): > 50 µM
IC50 (EGFR (mouse) [1]): 10 µM

Oc1cccc(Nc2n[nH]c3ncnc(Nc4cccc(Cl)c4)c23)c1
IC50 (EGFR (mouse) [1]): > 10 µM

c1ccc(Nc2ncnc3[nH]nc(Nc4ccccc4)c23)cc1
IC50 (EGFR (mouse) [1]): > 10 µM

Oc1ccc(Nc2n[nH]c3ncnc(Nc4cccc(Cl)c4)c23)cc1
IC50 (EGFR (mouse) [1]): > 10 µM

Nc1ncnc2c1c(-c1ccccc1)nn2-c1ccccc1
IC50 (EGFR (mouse) [2]): > 50 µM
IC50 (EGFR (mouse) [1]): > 10 µM

Nc1ncnc2[nH]nc(Nc3cccc(Cl)c3)c12
IC50 (EGFR (mouse) [1]): > 10 µM

Clc1cccc(Nc2n[nH]c3ncnc(NCc4ccccc4)c23)c1
IC50 (EGFR (mouse) [1]): > 10 µM

Oc1cccc(-c2n[nH]c3ncnc(Nc4cccc(Cl)c4)c23)c1
IC50 (EGFR (mouse) [1]): > 10 µM

Clc1cccc(Nc2n[nH]c3ncnc(Nc4ccccc4)c23)c1
IC50 (EGFR (mouse) [1]): > 10 µM

COc1ccc(CNc2n[nH]c3ncnc(Nc4cccc(Cl)c4)c23)cc1
IC50 (EGFR (mouse) [1]): > 10 µM

Clc1cccc(Nc2n[nH]c3ncnc(Nc4cccc(Br)c4)c23)c1
IC50 (EGFR (mouse) [1]): > 10 µM

Clc1cccc(Nc2ncnc3[nH]nc(-c4ccccc4)c23)c1
IC50 (EGFR (mouse) [1]): > 10 µM

Clc1cccc(Nc2ncnc3[nH]nc(NCc4ccccc4)c23)c1
IC50 (EGFR (mouse) [1]): > 10 µM

CC(C)(C)OC(=O)Nc1ccc(-c2n[nH]c3ncnc(Nc4cccc(Cl)c4)c23)cc1
IC50 (EGFR (mouse) [1]): > 10 µM

COc1cccc(CNc2n[nH]c3ncnc(Nc4cccc(Cl)c4)c23)c1
IC50 (EGFR (mouse) [1]): > 10 µM

Nc1ccc(-c2n[nH]c3ncnc(Nc4cccc(Cl)c4)c23)cc1
IC50 (EGFR (mouse) [1]): > 10 µM
